Reference: US7705021B2, “Isoindolone compounds, compositions containing the same, and methods of use thereof for the treatment of viral infections related to the etiology of cancer” (Fox Chase Cancer Center, priority 2005, dated 2010)

How the values were obtained:
[1] = tested on: HLR (HeLa Luciferase Reporter)-Elk-1 cells; test: MAPK signaling reporter assay (Elk-1 luciferase, EGF-stimulated); assay type: cell-based; conditions: Homo sapiens, 5 h, HLR-Elk-1 cells, EGF 10 ng/ml stimulation, luciferase after five hours
Experimental: The present example describes assays for assessing MAPK pathway signaling modulation mediated by the compounds and compositions described herein. Specifically, compounds of the invention have been assessed in an ELK-1 luciferase reporter assay in HeLa cells to obtain an IC50 measurement as well as to assess their anti-proliferative capacity. Following 72 hours of serum starvation, HLR (HeLa Luciferase Reporter)-Elk-1 cells (30,000 cells per well) were incubated for one hour in the presence or absence of various concentration of inhibitors prior to stimulation of Elk1 release by EGF addition (10 ng/ml). The amount of Elk1 release was measured after five hours using Bright-Glo Luciferase assay (Promega Co., Madison, Wis.).

HCT-116 cells = test: Proliferation assay (WST-1); assay type: cell-based; conditions: Homo sapiens, HCT-116, 48 hours
Experimental: Five thousand HCT-116 cells were seeded into each well of a 96 well flat bottom plate and incubated over night at 37° C. in 5% CO2. The growth of plated cells was measured by adding […] WST-1 reagent (Roche Applied Sciences, Germany) to three control wells and measuring OD650 and OD450 absorbances with a SpectraMax250 plate reader. If the OD650-OD450 values were above 0.5, the remainder of the plate was used for incubation with compounds or solvent control for 48 hours. After this incubation, WST-1 reagent was added to the wells and OD650-OD450 values were calculated as before. Triplicate wells were assayed for each condition and standard deviation was determined; all experiments were performed at least three times independently.

IC50 [1] | GI50 (HCT-116 cells) | Structure (SMILES) | inhibition at 60 µM (HCT-116 cells)
31.8 ± 6.1 µM |  | COc1cc(C2c3ccccc3C(=O)N2CCc2ccccn2)ccc1OCc1ccccc1 (stereo not drawn) [Compound 8, 3-(4-Benzyloxy-3-methoxy-phenyl)-2-(2-pyridin-2-yl-ethyl)-2,3-dihydro-isoindol-1-one] | 21%
22.2 ± 6.8 µM | 22.2 ± 5.3 µM | COc1cc(C2(OC)c3ccccc3C(=O)N2CCc2ccccn2)ccc1OCc1ccccc1 (stereo not drawn) [Compound 7, 3-(4-Benzyloxy-3-methoxy-phenyl)-3-methoxy-2-(2-pyridin-2-yl-ethyl)-2,3-dihydro-isoindol-1-one] | 
43 ± 6.9 µM |  | COc1cc(CN2C(=O)c3ccccc3C2Cc2ccccn2)ccc1OCc1ccccc1 (stereo not drawn) [Compound 11, 2-(4-benzyloxy-3-methoxy-benzyl)-3-(2-pyridin-2-yl-methyl)-2,3-dihydro-isoindol-1-one] | 26%
